Results published in US20250325493A1, “COMPOSITIONS AND METHODS FOR MAKING AND USING POLYMER-COATED NANOCAPSULES FOR TARGETED PHARMACEUTICAL AGENT DELIVERY” (The Regents of the University of Colorado, a body Corporate, priority 2022, published 2025).

Columns and labels:
[1] = NC stability after freeze drying with cryoprotectant; type: physicochemical
Method: In another exemplary method, NC stability after freeze drying was tested as a potential method for preserving NCs for long term storage and use including analyzing NC integrity and cargo retention for extended periods of time. In this example, mannitol (a sugar alcohol example, e.g., sorbitol and the like) was chosen as the cryoprotectant. W/O NCs were utilized for this experiment. Mannitol concentrations of 2.5% w/v, 5.0 w/v, and 10.0 w/v were tested to determine the optimal concentration (FIG. 13A). […] SEM images were taken before (FIG. 13B) and after (FIG. 13C) freeze drying to confirm DLS measurements. It was observed that the NC yield decreased after reconstitution which may be attributed to the mannitol crystallizing and imposing mechanical forces either breaking the NCs or forming aggregates. It is noted that mannitol can be removed, if needed or desired, from the NC formulations by centrifugation and washing in either water or PBS.

sBC clusters = assay: Selective delivery of PTM toxin to sBC clusters, live/dead cell quantification; type: cell-based, human; conditions: 24 hours, vs untreated control
Method: Blank or pentamidine (PTM) (B-cell toxin) loaded NCs were left uncoated or coated with either an ENTPD3 antibody or BSA for up to about 168 hours. Untreated and 1 μM free PTM were utilized as additional controls. […] Although benzalkonium chloride (BKC) can be used for biological applications, it can be toxic to cells at high concentrations.
In further exemplary methods, the number of GFP positive and GFP negative dead cells were quantified as GFP correlates to insulin positive cells. For the dead sBC clusters, 76% at 24 hours (FIG. 20G) and 69% at 72 hours were GFP positive (FIG. 20H).

| SMILES | ability to replace mannitol as cryoprotectant in freeze drying of NCs [1] | percentage of dead cells (sBC clusters) |
| --- | --- | --- |
| OC[C@H]1O[C@H](O[C@]2(CCl)O[C@H](CCl)[C@@H](O)[C@@H]2O)[C@H](O)[C@@H](O)[C@H]1Cl [sucralose] | failed to stabilize the NCs | – |
| OC[C@H]1O[C@@](CO)(O[C@H]2O[C@H](CO)[C@@H](O)[C@H](O)[C@H]2O)[C@@H](O)[C@@H]1O [sucrose] | failed to stabilize the NCs | – |
| N=C(N)c1ccc(OCCCCCOc2ccc(C(=N)N)cc2)cc1 [free PTM, pentamidine] | – | killed the majority of sBCs |
